Source: US20040171566A1, “Antisense modulation of p38 mitogen activated protein kinase expression” (priority 1999, published 2004)
e = 2'-O-(2-methoxyethyl) (MOE); d = 2'-deoxy (DNA)

Assays:
mouse p38α mRNA = test: Mouse p38α mRNA levels in bEND.3 cells, quantitative real-time PCR; format: cell-based; design: % Inhib. mouse p38α: concentration or dose not given beside the values; settings: bEND.3 cells, mRNA by quantitative real-time PCR, average of two experiments
Excerpt: (§1) Quantitation of p38α mRNA levels was accomplished by real-time quantitative PCR using the ABI PRISM™ 7600, 7700, or 7900 Sequence Detection System (PE-Applied Biosystems, Foster City, Calif.) according to manufacturer's instructions. This is a closed-tube, non-gel-based, fluorescence detection system which allows high-throughput quantitation of polymerase chain reaction (PCR) products in real-time. As opposed to standard PCR in which amplification products are quantitated after the PCR is completed, products in real-time quantitative PCR are quantitated as they accumulate. This is accomplished by including in the PCR reaction an oligonucleotide probe that anneals specifically between the forward and reverse PCR primers, and contains two fluorescent dyes. A reporter dye (e.g., FAM or JOE, obtained from either PE-Applied Biosystems, Foster City, Calif., Operon Technologies Inc., Alameda, Calif. or Integrated DNA Technologies Inc., Coralville, Iowa) is attached to the 5′ end of the probe and a quencher dye (e.g., TAMRA, obtained from either PE-Applied Biosystems, Foster City, Calif., Operon Technologies Inc., Alameda, Calif. or Integrated DNA Technologies Inc., Coralville, Iowa) is attached to the 3′ end of the probe. When the probe and dyes are intact, reporter dye emission is quenched by the proximity of the 3′ quencher dye. During amplification, annealing of the probe to the target sequence creates a substrate that can be cleaved by the 5′-exonuclease activity of Taq polymerase. […] With each cycle, additional reporter dye molecules are cleaved from their respective probes, and the fluorescence intensity is monitored at regular intervals by laser optics built into the ABI PRISM™ Sequence Detection System. In each assay, a series of parallel reactions containing serial dilutions of mRNA from untreated control samples generates a standard curve that is used to quantitate the percent inhibition after antisense oligonucleotide treatment of test samples.
(§2) Prior to quantitative PCR analysis, primer-probe sets specific to the target gene being measured are evaluated for their ability to be “multiplexed” with a GAPDH amplification reaction. In multiplexing, both the target gene and the internal standard gene GAPDH are amplified concurrently in a single sample. In this analysis, mRNA isolated from untreated cells is serially diluted. Each dilution is amplified in the presence of primer-probe sets specific for GAPDH only, target gene only (“single-plexing”), or both (multiplexing). Following PCR amplification, standard curves of GAPDH and target mRNA signal as a function of dilution are generated from both the single-plexed and multiplexed samples. If both the slope and correlation coefficient of the GAPDH and target signals generated from the multiplexed samples fall within 10% of their corresponding values generated from the single-plexed samples, the primer-probe set specific for that target is deemed multiplexable. Other methods of PCR are also known in the art.
(§3) PCR reagents were obtained from Invitrogen Corporation, (Carlsbad, Calif.). […] The RT reaction was carried out by incubation for 30 minutes at 48° C. Following a 10 minute incubation at 95° C. to activate the PLATINUM® Taq, 40 cycles of a two-step PCR protocol were carried out: 95° C. for 15 seconds (denaturation) followed by 60° C. for 1.5 minutes (annealing/extension).
(§4) Gene target quantities obtained by real time RT-PCR are normalized using either the expression level of GAPDH, a gene whose expression is constant, or by quantifying total RNA using RiboGreen™ (Molecular Probes, Inc. Eugene, Oreg.). GAPDH expression is quantified by real time RT-PCR, by being run simultaneously with the target, multiplexing, or separately. Total RNA is quantified using RiboGreen™ RNA quantification reagent (Molecular Probes, Inc. Eugene, Oreg.). Methods of RNA quantification by RiboGreen™ are taught in Jones, L. J., et al, (Analytical Biochemistry, 1998, 265, 368-374). […]

rat p38α mRNA = test: Rat p38α mRNA levels in NR-8383 cells, quantitative real-time PCR; format: cell-based; settings: 300 nM oligonucleotide with FuGENE 6, 24 hours, mRNA by quantitative real-time PCR, average of two experiments
Excerpt: as §1, §2, §3, §4

Substance | % Inhib. mouse p38α (mouse p38α mRNA) [%] | % Inhib. rat p38α (rat p38α mRNA) [%]
320124 (antisense GGATTGGCACCAATAAATAC; sugars from the 5' end e5 d10 e5, all phosphorothioate, methylation of C not given here) [compound 320124] | 29 | 31
320131 (antisense CTTCCCCTCACAGTGAAGTG; sugars from the 5' end e5 d10 e5, all phosphorothioate, methylation of C not given here) [compound 320131] | 92 | 39
320174 (antisense CCCGCTTGGGCTCCAGTGGC; sugars from the 5' end e5 d10 e5, all phosphorothioate, methylation of C not given here) [compound 320174] | 62 | 29
320129 (antisense CATTTCTTCTTGGTCAAGGG; sugars from the 5' end e5 d10 e5, all phosphorothioate, methylation of C not given here) [compound 320129] | 69 | 65
320108 (antisense AGATGGGTCACCAGGTACAC; sugars from the 5' end e5 d10 e5, all phosphorothioate, methylation of C not given here) [compound 320108] | 61 | 57
320113 (antisense ATCAATATGGTCTGTACCAG; sugars from the 5' end e5 d10 e5, all phosphorothioate, methylation of C not given here) [compound 320113] | 35 | 9
320127 (antisense TGAGCAAAGTAGGCATGCGC; sugars from the 5' end e5 d10 e5, all phosphorothioate, methylation of C not given here) [compound 320127] | 73 | 56
320147 (antisense AGAGCACAGCATGCAAACAC; sugars from the 5' end e5 d10 e5, all phosphorothioate, methylation of C not given here) [compound 320147] | 66 | 43
320118 (antisense CAGACTCTGAGGAGATTTTC; sugars from the 5' end e5 d10 e5, all phosphorothioate, methylation of C not given here) [compound 320118] | 47 | 69
306022 (antisense GGCCAGAGACTGAATGTAGT; sugars from the 5' end e5 d10 e5, all phosphorothioate, methylation of C not given here) [compound 306022] | 78 | 53
320136 (antisense AGCAGGCAGACTGCCAAGGA; sugars from the 5' end e5 d10 e5, all phosphorothioate, methylation of C not given here) [compound 320136] | 83 | 34
320164 (antisense CTTGGCATCCTGTTAATGAG; sugars from the 5' end e5 d10 e5, all phosphorothioate, methylation of C not given here) [compound 320164] | 80 | 73
320122 (antisense ATTTGCGAAGTTCATCTTCG; sugars from the 5' end e5 d10 e5, all phosphorothioate, methylation of C not given here) [compound 320122] | 73 | 48
320116 (antisense TCAGAAGCTCAGCCCCTGGG; sugars from the 5' end e5 d10 e5, all phosphorothioate, methylation of C not given here) [compound 320116] | 95 | 73
320173 (antisense TCCCACAGGCAGCGGCCGGG; sugars from the 5' end e5 d10 e5, all phosphorothioate, methylation of C not given here) [compound 320173] | 160 | 250
320149 (antisense AAGGAGCTCCTGGCTTCAGG; sugars from the 5' end e5 d10 e5, all phosphorothioate, methylation of C not given here) [compound 320149] | 74 | 25
320103 (antisense AGCTCCTGCCGGTAGAACGT; sugars from the 5' end e5 d10 e5, all phosphorothioate, methylation of C not given here) [compound 320103] | 81 | 55
320104 (antisense TCAAAAGCAGCACACACCGA; sugars from the 5' end e5 d10 e5, all phosphorothioate, methylation of C not given here) [compound 320104] | 82 | 42
320150 (antisense GGATTCCTACAACATACAAA; sugars from the 5' end e5 d10 e5, all phosphorothioate, methylation of C not given here) [compound 320150] | 82 | 62
320114 (antisense CTTAAAATGAGCTTCAACTG; sugars from the 5' end e5 d10 e5, all phosphorothioate, methylation of C not given here) [compound 320114] | 71 | 60
320128 (antisense TCAAAGGACTGGTCATAAGG; sugars from the 5' end e5 d10 e5, all phosphorothioate, methylation of C not given here) [compound 320128] | 79 | 37
320155 (antisense CCCTGAGGATTCATGTTTAT; sugars from the 5' end e5 d10 e5, all phosphorothioate, methylation of C not given here) [compound 320155] | 93 | 73
320153 (antisense AATATTAAAATAATTTGCCC; sugars from the 5' end e5 d10 e5, all phosphorothioate, methylation of C not given here) [compound 320153] | 0 | 22
320159 (antisense TCTGACATCCTATGGCATAC; sugars from the 5' end e5 d10 e5, all phosphorothioate, methylation of C not given here) [compound 320159] | 94 | 69
320125 (antisense GCTGCTGTGATCCTCTTATC; sugars from the 5' end e5 d10 e5, all phosphorothioate, methylation of C not given here) [compound 320125] | 67 | 63
320172 (antisense ACTCTCGCGAGAACAGCTCC; sugars from the 5' end e5 d10 e5, all phosphorothioate, methylation of C not given here) [compound 320172] | 39 | 0
